From US20110245231A1, “ACTIVE SUBSTANCE AND PHARMACEUTICAL COMPOSITION FOR TREATING ALCOHOL DEPENDENCE, AND A METHOD FOR OBTAINING AND THE USE OF SAID ACTIVE SUBSTANCE” (Alla Chem, LLC, priority 2009, published 2011)

Test system: mice with formed alcohol dependence (male mice of SHK line)
Assay: Alcohol-deprivation effect (ADE): voluntary consumption of 10% alcohol in a 90-minute test before and after 4-day deprivation
Format: in vivo
Conditions: for Alcohol consumption before deprivation: baseline test before deprivation and dosing; for ADE (ADE index): index >0.5 = alcohol dependence
Protocol: Alcohol dependence is determined by the increasing of alcohol consumption induced by short-time deprivation of alcohol. The occurrence and the level of this increasing is a criterion for self-control loss during the period of heavy drinking [Maisky A. I., Salimov R. M. Procedural guidelines for investigation of anti-alcohol medications. The guidebook for experimental (preclinical) investigation of novel pharmacological substances. Ed. Harbiev R. U., publ. “Medicine”, Moscow, 2005, p. 342-356].
For overcoming of the possible first-use gustatory rejection of alcohol solution during the first 6 days of the experiment male mice of SHK line were not given water, they had access only to alcohol solution of increasing concentration (3%—on the first and second days, 6%—on the third and fourth days and 10%—on the fifth and sixth days) [Mc Kinzie et al., Alcohol Clin Exp Res. 1998, 22(7):1584-90]. At that, free access to food was provided. During the next 2 months the animals had free access to pure water, food and 10% solution of alcohol.
For quantitative estimation of alcohol motivation the amount of voluntary alcohol (10% solution) consumption during the 90-minute's test after 4-day's alcohol deprivation was compared with the amount of alcohol consumed during the test carried out before 4-day's alcohol deprivation (alcohol-deprivation effect, ADE). ADE index was calculated as a ratio of alcohol consumption after its withdrawal (grams of pure alcohol per kilogram of body mass) to the total alcohol consumption before and after its withdrawal. The existence of alcohol dependence is determined by the value of ADE index exceeding 0.5, a lower meaning of ADE index corresponds to the absence of alcohol dependence.
At the end of 2-month's period of free access to water and alcohol the above estimation of ADE was carried out, and for further experiments the animals with ADE index exceeding 0.5 were selected. These mice, which had practically identical ADE values, were divided into groups of 9-12 animals.
Sodium γ-hydroxybutyrate was used as a reference drug in the experiments with male mice of SHK line.
Peroral administration once a day for 4 days running

[1] = dose 2.0 mg/kg peroral once a day for 4 days during deprivation
[2] = dose 10.0 mg/kg peroral once a day for 4 days during deprivation
[3] = dose 10.0 mg/kg peroral once a day for 4 days
[4] = dose 0.5 mg/kg peroral once a day for 4 days during deprivation
[5] = dose 3.0 mg/kg peroral once a day for 4 days during deprivation
[6] = dose 20.0 mg/kg peroral once a day for 4 days during deprivation
[7] = dose 150 mg/kg peroral once a day for 4 days during deprivation

## Cl.c1c(C2CCCCC2)cc2c3c(n4c2c1NCC4)CCCC3 [2.2, 5-cyclohexyl-2,3,7,8,9,10-hexahydro-1H-pyrazino[3,2,1-jk]carbazole hydrochloride]
2 and 10 mg/kg doses
  alcohol-deprivation effect (increasing of alcohol consumption after 4-days' deprivation), observed or not: observed
[1]
  Alcohol consumption after deprivation: 3.42 ± 1.16 g/kg
  Alcohol consumption before deprivation: 2.61 ± 0.79 g/kg
Dose 2.0 mg/kg peroral once a day for 4 days
  ADE (ADE index): 0.58 ± 0.08
[2]
  Alcohol consumption after deprivation: 5.05 ± 1.10 g/kg
  Alcohol consumption before deprivation: 2.61 ± 0.75 g/kg
[3]
  ADE (ADE index): 0.61 ± 0.07
Used alone in doses of 2-10 mg/kg
  influence on ADE, in words: does not influence ADE

## Br.CCSc1nc2ccccc2[nH]1 [1.1, 2-ethylsulfanyl-1H-benzimidazole hydrobromide]
0.5 mg/kg dose
  alcohol-deprivation effect (increasing of alcohol consumption after 4-days' deprivation), observed or not: observed
3-20 mg/kg
  post-deprivation increasing of alcohol consumption, observed or not: not observed
[4]
  Alcohol consumption after deprivation: 4.36 ± 1.10 g/kg
  Alcohol consumption before deprivation: 1.96 ± 0.75 g/kg
Dose 0.5 mg/kg peroral once a day for 4 days
  ADE (ADE index): 0.65 ± 0.07
[5]
  Alcohol consumption after deprivation: 2.60 ± 1.10 g/kg
  Alcohol consumption before deprivation: 3.49 ± 0.75 g/kg
Dose 3.0 mg/kg peroral once a day for 4 days
  ADE (ADE index): 0.46 ± 0.07
[2]
  Alcohol consumption after deprivation: 1.59 ± 1.10 g/kg
  Alcohol consumption before deprivation: 2.79 ± 0.75 g/kg
[3]
  ADE (ADE index): 0.39 ± 0.07
[6]
  Alcohol consumption after deprivation: 1.55 ± 1.10 g/kg
  Alcohol consumption before deprivation: 2.56 ± 0.75 g/kg
Dose 20.0 mg/kg peroral once a day for 4 days
  ADE (ADE index): 0.31 ± 0.07
dose-dependent, more noticeable at 20 mg/kg
  dose at which the decrease of alcohol-deprivation effect appears: 3 mg/kg

## O=C([O-])CCCO.[Na+] [SHB, sodium γ-hydroxybutyrate]
[7]
  Alcohol consumption after deprivation: 1.49 ± 1.10 g/kg
  Alcohol consumption before deprivation: 2.36 ± 0.75 g/kg
Dose 150 mg/kg peroral once a day for 4 days
  ADE (ADE index): 0.45 ± 0.07
Reference drug, 150 mg/kg (Table 3)
  effect on alcohol-deprivation effect, in words: significant decreasing of alcohol-deprivation effect
